{"source": "patent US10889572B2", "about": "“Reactive oxygen species scavengers and use for treating diseases” (XW LABORATORIES INC., priority 2017, dated 2021)", "key": {"[1]": {"tested_on": "HT-1080 (fibrosarcoma) cells", "assay": "Primary screening by ferroptosis assay (Erastin-induced, cell viability, CellTiter-Glo)", "format": "cell-based", "details": "HT-1080 cells, % remaining activity, read-out: EC50, Inhibition for Ferroptosis in HT-1080 Cell", "method": "Cell Lines and Media: HT-1080 (fibrosarcoma) cells were obtained from American Type Culture Collection. Cells were grown in EMEM media, 10% Heat-Inactivated FBS, and penicillin-streptomycin mix (Invitrogen). Cells were maintained at 37° C. and 5% CO2 in a tissue culture incubator.\nCell Viability Assay: Seed 10,000 cell/well of HT-1080 cells with 195 μL growth media in black and clear bottom 96-well plates (Cat #Corning 3904) and allow cells to adhere overnight. The next day, dilute test compound by 2-fold dilution into 12 points with medium containing 400 μM Erastin. Transfer 5 μL of compounds solution into growth medium in triplicated wells. 30 hours later, add Cell Titer-Glo® Luminescent cell viability assay reagent (Cat #, Promega G8081) to measure HT-1080 cell viability according to the manufacture protocol. Briefly, aspirate 100 μL medium, and add 50 μL CellTiter-Glo® Luminescent reagent to each well and incubated for 30 minutes at room temperature to stabilize the Luminescent signal. Seal the plates and centrifuged for 1 minute at 1,000 rpm to remove bubbles. Shake the plates for 1 minute on an orbital shaker. Read the plate to detect Luminescent signal with EnSpire Multimode Plate Reader (PerkinElmer). The remaining activity % is used to evaluate Erastin induced ferroptosis in HT-1080 cells and expressed as the following formula: % Remaining Activity−100×[(Sample−Backgroundavg)/(Vehicle−Background avg)]\nSample: Readout from the test compound\nVehicle: Readout from the vehicle sample\nBackground: Readout from the Erastin only treatment\nDose response curve is graphed by using the non-linear regression analysis (formula equation 201) in XLFit (Excel add-in software) for the average % remaining activity from triplicates, and the EC50 values is then calculated. In this anti-ferroptosis assay, ferrostatin-1, and XJB-5-131 are included as reference. The acceptance criteria were set based on historical result, mean±2.58*SD in logarithmic scale, meanwhile Z′>0.5."}, "3T3-L1 cells": {"tested_on": "3T3-L1 cells", "assay": "Apoptosis assay (Caspase-Glo 3/7, Actinomycin D induced)", "format": "cell-based", "details": "100 nM Actinomycin D, 48 hours, Caspase-Glo 3/7, 2 hours pre-treatment, read-out: EC50, Inhibition for Apoptosis in 3T3-L1 Cell induced by Actinomycin D", "method": "Cell Lines and Media. 3T3-L1 cells were obtained from American Type Culture Collection. Cells were grown in DMEM completed media, 10% FBS, and penicillin-streptomycin mix (Invitrogen). Cells were maintained at 37° C. and 5% CO2 in a tissue culture incubator.\nApoptosis Assay. […] We used this assay to screen our compounds for apoptosis inhibition. Briefly, 40 μL of 3000 3T3-L1 cells were seeded per well in 384 well plates, cells were allowed to adhere overnight. In the next day, prepare the Actinomycin D as the apoptosis inducing agent into 100 μM DMSO stock. Prepare the test compounds into 10 mM DMSO stock. Serial dilute the compound into 10 points by 3-fold dilution with DMSO. Pre-treat the 3T3-L1 cells with test compound by transfer 40 nL of stock of serial concentration in triplicate wells using acoustic fluid transfer, incubate for 2 hours. Then transfer 40 nL of 100 μM of Actinomycin D (final concentration is 100 nM) into designated wells using acoustic fluid transfer. Incubate the assay plates at 37° C., 5% CO2, 95% humidity incubator for 48 hours. For caspase assay, add 20 μL/well of Caspase-Glo>3/7 reagent (Promega) into test wells. Incubate for 30 minutes at room temperature to stabilize the luminescence signal. Read the plate with EnSpire Multimode Plate Reader (PerkinElmer). Calculate the EC50 value using formula equation 201: y−(A+((B−A)/(1+((x/C)^D)))) from the XLFit (Excel add-in software), where\nA: Average mean of vehicle samples\nB: Average mean of cells treated with 100 nM AcD\nZ′ factor was used to describe the screening assay perfonuance. The Z′ factor value was >0.5 in all the test plates which indicated the assay was qualified and the IC50 value was reliable for all tested compounds."}}, "note": "Read-outs that look alike come from different tables or passages of the source."}
{"compound": "CC(C)C[C@@H](/C=C/[C@H](Cc1ccccc1)C(=O)N1CCC[C@H]1C(=O)N[C@@H](CCCNC(=O)OCc1ccccc1)C(=O)NC1CC(C)(C)N(O)C(C)(C)C1)NC(=O)OC(C)(C)C", "note": "[Example I, Benzyl N-[(4S)—4-{[(2S)-1-[(2S,3E,5S)-2-Benzyl-5-{[(Tert-Butoxy)Carbonyl]Amino}-7-Methyloct-3-Enoyl]Pyrrolidin-2-Yl]Formamido}-4-[(1-Oxyl-2,2,6,6-Tetramethylpiperidin-4-Yl)Carbamoyl]Butyl]Carbamate]", "values": [{"measurement": "EC50", "setting": "[1]; 30 hours", "result": 260, "unit": "nM"}, {"measurement": "EC50", "setting": "3T3-L1 cells", "result": 1580, "unit": "nM"}]}
{"compound": "CC(C)C[C@@H](/C=C/[C@H](Cc1ccccc1)C(=O)N1CCC[C@H]1C(=O)N[C@@H](C(=O)N[C@@H](CCCNC(=O)OCc1ccccc1)C(=O)NC1CC(C)(C)N(O)C(C)(C)C1)C(C)C)NC(=O)OC(C)(C)C", "note": "[Example IV]", "values": [{"measurement": "EC50", "setting": "[1]; Homo sapiens, 30 hours", "result": 564, "unit": "nM"}, {"measurement": "EC50", "setting": "3T3-L1 cells; Mus musculus, 3T3-L1", "result": 1270, "unit": "nM"}]}
{"compound": "CC(C)C[C@@H](/C=C/[C@H](Cc1ccccc1)C(=O)N1CCC[C@H]1C(=O)N[C@@H](CCCNC(=O)OCc1ccccc1)C(=O)NC1CC(C)(C)N(O)C(C)(C)C1)NC(=O)OC(C)(C)C", "note": "[Example IX, Benzyl N-[(4S)—4-{[(2S)-1-[(2S,3E,5S)-2-benzyl-5-{[(tert-butoxy)carbonyl]amino}-7-methyloct-3-enoyl]pyrrolidin-2-yl]formamido}-4-[(1-hydroxy-2,2,6,6-tetramethylpiperidin-4-yl)carbamoyl]butyl]carbamate]", "values": [{"measurement": "EC50", "setting": "[1]; 30 hours", "result": 261, "unit": "nM"}, {"measurement": "EC50", "setting": "3T3-L1 cells; Mus musculus, 3T3-L1", "result": 1370, "unit": "nM"}]}
{"compound": "CC(C)C[C@@H](/C=C/[C@H](Cc1ccccc1)C(=O)N1CCC[C@H]1C(=O)N[C@@H](CCCCNC(=O)OCc1ccccc1)C(=O)NC1CC(C)(C)N(O)C(C)(C)C1)NC(=O)OC(C)(C)C", "note": "[Example XXVI, Benzyl N—[(5 S)—5-{[(2S)-1-[(2S,3E,5S)-2-benzyl-5-{[(tert-butoxy)carbonyl]amino}-7-methyloct-3-enoyl]pyrrolidin-2-yl]formamido}-5-[(1-oxyl-2,2,6,6-tetramethylpiperidin-4-yl)carbamoyl]pentyl]carbamate]", "values": [{"measurement": "EC50", "setting": "[1]; Homo sapiens, HT-1080, 30 h", "result": 140, "unit": "nM"}, {"measurement": "EC50", "setting": "3T3-L1 cells; Mus musculus, 3T3-L1", "result": 683, "unit": "nM"}]}
{"compound": "CC(C)C[C@@H](/C=C/[C@H](Cc1ccccc1)C(=O)N1CCC[C@H]1C(=O)N[C@@H](C(=O)N[C@@H](CCCNC(=O)OCc1ccccc1)C(=O)NC1CC(C)(C)N(O)C(C)(C)C1)C(C)C)NC(=O)OCC1CC1", "note": "[Example X, Cyclopropylmethyl N-[(4S,5E,7S)-7-benzyl-8-[(2S)—2-{[(1R)—1-{[(1S)—4-{[(benzyloxy)carbonyl]amino}-1-[(1-hydroxy-2,2,6,6-tetramethylpiperidin-4-yl)carbamoyl]butyl]carbamoyl}-2-methylpropyl]carbamoyl}pyrrolidin-1-yl]-2-methyl-8-oxooct-5-en-4-yl]carbamate]", "values": [{"measurement": "EC50", "setting": "[1]; Homo sapiens, 30 hours", "result": 285, "unit": "nM"}, {"measurement": "EC50", "setting": "3T3-L1 cells; Mus musculus, 3T3-L1", "result": 1380, "unit": "nM"}]}
{"compound": "CC(C)C[C@@H](/C=C/[C@H](Cc1ccccc1)C(=O)N1CCC[C@H]1C(=O)N[C@@H](CCCNC(=O)OC1CC(C)(C)N(O)C(C)(C)C1)C(=O)OC(C)C)NC(=O)OC(C)(C)C", "note": "[Example XXIX, Propan-2-yl (2S)—2-{[(2S)-1-[(2S,3E,5S)-2-benzyl-5-{[(tert-butoxy)carbonyl]amino}-7-methyloct-3-enoyl]pyrrolidin-2-yl]formamido}-5-({[(1-oxyl-2,2,6,6-tetramethylpiperidin-4-yl)oxy]carbonyl}amino)pentanoate]", "values": [{"measurement": "EC50", "setting": "[1]; Homo sapiens, HT-1080, 30 h", "result": 73, "unit": "nM"}, {"measurement": "EC50", "setting": "3T3-L1 cells; Mus musculus, 3T3-L1", "result": 4320, "unit": "nM"}]}
{"compound": "1-Oxyl-2,2,6,6-tetramethylpiperidin-4-yl-N-[(4S)—4-{[(2S)-1-[(2S,3E,5S)-2-benzyl-5-{[(tert- butoxy)carbonyl]amino}-7-methyloct-3-enoyl]pyrrolidin-2-yl]formamido}-4-[(1-oxyl-2,2,6,6-tetramethylpiperidin-4-yl)carbamoyl]butyl]carbamate [Example XXXXII]", "values": [{"measurement": "EC50", "setting": "[1]; 30 hours", "result": 274, "unit": "nM"}, {"measurement": "EC50", "setting": "3T3-L1 cells", "result": 708, "unit": "nM"}]}
{"compound": "CC(C)C[C@@H](/C=C/[C@H](Cc1ccccc1)C(=O)N1CCC[C@H]1C(=O)N[C@@H](C)C(=O)N[C@@H](CCCNC(=O)OCc1ccccc1)C(=O)NC1CC(C)(C)N(O)C(C)(C)C1)NC(=O)OC(C)(C)C", "note": "[Example XIV, Benzyl N-[(4S)-4-[(2S)—2-{[(2S)-1-[(2S,3E,5S)-2-benzyl-5-{[(tert-butoxy)carbonyl]amino}-7-methyloct-3-enoyl]pyrrolidin-2-yl]formamido}propanamido]-4-[(1-hydroxy-2,2,6,6-tetramethylpiperidin-4-yl)carbamoyl]butyl]carbamate]", "values": [{"measurement": "EC50", "setting": "[1]; Homo sapiens, HT-1080, 30 h", "result": 515, "unit": "nM"}]}
{"compound": "CC(C)C[C@@H](/C=C/[C@H](Cc1ccccc1)C(=O)N1CCC[C@H]1C(=O)N[C@H](C(=O)N[C@@H](CCCNC(=O)OC1CC(C)(C)N(O)C(C)(C)C1)C(=O)NC(C)C)C(C)C)NC(=O)OC(C)(C)C", "note": "[Example XXXXVII, tert-Butyl N-[(4S,5E,7S)-7-benzyl-8-[(2S)—2-{[(1S)—1-{[(1S)-4-({[(1-oxyl-2,2,6,6-tetramethylpiperidin-4-yl)oxy]carbonyl}amino)-1-[(propan-2-yl)carbamoyl]butyl]carbamoyl}-2-methylpropyl]carbamoyl}pyrrolidin-1-yl]-2-methyl-8-oxooct-5-en-4-yl]carbamate]", "values": [{"measurement": "EC50", "setting": "[1]; Homo sapiens, 30 hours", "result": 143, "unit": "nM"}]}
{"compound": "CC(C)C[C@@H](/C=C/[C@H](Cc1ccccc1)C(=O)N1CCC[C@H]1C(=O)N[C@@H](CCCNC(=O)OC1CC(C)(C)N(O)C(C)(C)C1)C(=O)OC(C)C)NC(=O)OC(C)(C)C", "note": "[Example XXX, Propan-2-yl (2S)—2-{[(2S)-1-[(2S,3E,5S)-2-benzyl-5-{[(tert-butoxy)carbonyl]amino}-7-methyloct-3-enoyl]pyrrolidin-2-yl]formamido}-5-({[(1-hydroxy-2,2,6,6-tetramethylpiperidin-4-yl)oxy]carbonyl}amino)pentanoate]", "values": [{"measurement": "EC50", "setting": "[1]; 30 hours", "result": 46, "unit": "nM"}]}
{"compound": "CC(C)C[C@@H](/C=C/[C@H](Cc1ccccc1)C(=O)N1CCC[C@H]1C(=O)N[C@H](CCCCNC(=O)OC1CC(C)(C)N(O)C(C)(C)C1)C(=O)OC(C)C)NC(=O)OC(C)(C)C", "note": "[Example XXXIII, Propan-2-yl (2R)—2-{[(2S)-1-[(2S,3E,5S)-2-benzyl-5-{[(tert-butoxy)carbonyl]amino}-7-methyloct-3-enoyl]pyrrolidin-2-yl]formamido}-6-({[(1-oxyl-2,2,6,6-tetramethylpiperidin-4-yl)oxy]carbonyl}amino)hexanoate]", "values": [{"measurement": "EC50", "setting": "[1]; Homo sapiens, HT-1080, 30 h", "result": 291, "unit": "nM"}]}
{"compound": "Cc1cc(O)cc(C)c1CNC(=O)[C@H](CCCNC(=O)OCc1ccccc1)NC(=O)[C@@H]1CCCN1C(=O)[C@H](/C=C/[C@H](CC(C)C)NC(=O)OC(C)(C)C)Cc1ccccc1", "note": "[Example XXIV, Benzyl N-[(4S)—4-{[(2S)-1-[(2S,3E,5S)-2-benzyl-5-{ [(tert-butoxy)carbonyl]amino}-7-methyloct-3-enoyl]pyrrolidin-2-yl]formamido}-4-{[(4-hydroxy-2,6-dimethylphenyl)methyl]carbamoyl}butyl]carbamate]", "values": [{"measurement": "EC50", "setting": "[1]; Homo sapiens, HT-1080, 30 h", "result": "> 4000", "unit": "nM"}]}
{"compound": "CC(C)C[C@@H](/C=C/[C@H](Cc1ccccc1)C(=O)N1CCCC1C(=O)N[C@@H](CCCCNC(=O)OC1CC(C)(C)N(O)C(C)(C)C1)C(=O)OC1CCCCC1)NC(=O)OC(C)(C)C", "note": "(stereo in doubt) [Example XXXXVI, (S)—Cyclohexyl 2-((R)-1-((2S,5S,E)-2-benzyl-5-((tert-butoxycarbonyl)amino)-7-methyloct-3-enoyl)pyrrolidine-2-carboxamido)-6-((((1-hydroxy-2,2,6,6-tetramethylpiperidin-4-yl)oxy)carbonyl)amino)hexanoate]", "values": [{"measurement": "EC50", "setting": "[1]; Homo sapiens, HT-1080, 30 h", "result": 66.3, "unit": "nM"}]}
